Source: patent US8207169B2, “Substituted [1,2,4]triazolo[4′,3′:1,6]pyrido[2,3-b]pyrazines of the formula D” (MSD K.K., priority 2008, dated 2012)

Columns and labels:
Akt1 kinase = molecular target: T1, Akt1 kinase (Homo sapiens, UniProt P31749); test: Akt kinase assay (HTRF, GSK-derived biotinylated peptide substrate); format: biochemical; settings: activated Akt1 kinase
T1 construct: a middle T tag was added to the 5′ end of the full length Akt1 gene; biotin tag (from pS2neo vector); made in house; host or cells: Drosophila S2 cells
Experimental: (§1) Activated Akt isoforms and pleckstrin homology domain deletion constructs were assayed utilizing a GSK-derived biotinylated peptide substrate. The extent of peptide phosphorylation was determined by Homogeneous Time Resolved Fluorescence (HTRF) using a lanthanide chelate(Lance)-coupled monoclonal antibody specific for the phosphopeptide in combination with a streptavidin-linked allophycocyanin (SA-APC) fluorophore which will bind to the biotin moiety on the peptide. When the Lance and APC are in proximity (i.e. bound to the same phosphopeptide molecule), a non-radiative energy transfer takes place from the Lance to the APC, followed by emission of light from APC at 665 nm.
(§2) Materials Required for the Assay:
(§3) A. Activated Akt isozyme or pleckstrin homology domain deleted construct
(§4) B. Akt peptide substrate: GSK3α (S21) Peptide #3928 biotin-GGRARTSSFAEPG (SEQ. ID. NO.:15), Macromolecular Resources.
(§5) C. Lance labeled anti-phospho GSK3α monoclonal antibody (Cell Signaling Technology, clone #27).
(§6) D. SA-APC (Prozyme catalog no. MS lot #896067).
(§7) E. Microfluor®B U Bottom Microtiter Plates (Dynex Technologies, Catalog no. 7205).
(§8) F. Discovery® HTRF Microplate Analyzer, Packard Instrument Company.
(§9) G. 100× Protease Inhibitor Cocktail (PIC): 1 mg/mL benzamidine, 0.5 mg/mL pepstatin, 0.5 mg/mL leupeptin, 0.5 mg/mL aprotinin.
(§10) H. 10× Assay Buffer: 500 mM HEPES, pH 7.5, 1% PEG, […], 1 mM EGTA, 1% BSA, 20 mM ∂-Glycerol phosphate.
(§11) I. Quench Buffer: 50 mM HEPES pH 7.3, 16.6 mM EDTA, 0.1% BSA, 0.1% Triton X-100, 0.17 nM Lance labeled monoclonal antibody clone #27, 0.0067 mg/mL SA-APC
(§12) J. ATP/MgCl2 working solution: 1× Assay buffer, 1 mM DTT, 1×PIC, 125 mM KCl, 5% Glycerol, 25 mM MgCl2, 375 μM ATP
(§13) K. Enzyme working solution: 1× Assay buffer, 1 mM DTT, 1×PIC, 5% Glycerol, active Akt. The final enzyme concentrations were selected so that the assay was in a linear response range.
(§14) L. Peptide working solution: 1× Assay buffer, 1 mM DTT, 1×PIC, 5% Glycerol, 2 μM GSK3 biotinylated peptide #3928
(§15) The reaction is assembled by adding […] of the ATP/MgCl2 working solution to the appropriate wells of a 96-well microtiter plate. Inhibitor or vehicle (1.0 μL) is added followed by 10 μL of peptide working solution. The reaction is started by adding 13 μl, of the enzyme working solution and mixing. The reaction is allowed to proceed for 50 min and then stopped by the addition of 60 μL, HTRF quench buffer. The stopped reactions were incubated at room temperature for at least 30 min and then read on the Discovery instrument.

Akt2 kinase = molecular target: T2, Akt2 kinase (Homo sapiens, UniProt P31751); test: as above; format: biochemical; settings: activated Akt2 kinase
T2 construct: a middle T tag was added to the 5′ end of the full length Akt2 using the PCR primer; biotin tag (from pS2neo vector); made in house; host or cells: Drosophila S2 cells
Experimental: as §1, §2, §3, §4, §5, §6, §7, §8, §9, §10, §11, §12, §13, §14, §15

T1 sequence (P31749 whole entry): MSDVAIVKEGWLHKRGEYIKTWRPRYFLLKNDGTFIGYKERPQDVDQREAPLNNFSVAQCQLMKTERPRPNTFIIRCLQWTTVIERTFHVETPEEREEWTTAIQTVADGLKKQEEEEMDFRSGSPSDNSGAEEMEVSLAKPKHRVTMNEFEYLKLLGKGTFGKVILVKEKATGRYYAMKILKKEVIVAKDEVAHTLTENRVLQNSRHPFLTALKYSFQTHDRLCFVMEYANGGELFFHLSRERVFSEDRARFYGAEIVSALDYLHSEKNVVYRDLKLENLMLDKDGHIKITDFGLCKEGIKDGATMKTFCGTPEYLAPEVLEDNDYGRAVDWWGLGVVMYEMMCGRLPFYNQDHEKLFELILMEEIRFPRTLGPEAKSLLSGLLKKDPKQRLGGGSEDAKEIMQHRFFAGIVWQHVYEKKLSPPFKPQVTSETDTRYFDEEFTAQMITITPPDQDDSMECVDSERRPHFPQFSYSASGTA
T2 sequence (P31751 whole entry): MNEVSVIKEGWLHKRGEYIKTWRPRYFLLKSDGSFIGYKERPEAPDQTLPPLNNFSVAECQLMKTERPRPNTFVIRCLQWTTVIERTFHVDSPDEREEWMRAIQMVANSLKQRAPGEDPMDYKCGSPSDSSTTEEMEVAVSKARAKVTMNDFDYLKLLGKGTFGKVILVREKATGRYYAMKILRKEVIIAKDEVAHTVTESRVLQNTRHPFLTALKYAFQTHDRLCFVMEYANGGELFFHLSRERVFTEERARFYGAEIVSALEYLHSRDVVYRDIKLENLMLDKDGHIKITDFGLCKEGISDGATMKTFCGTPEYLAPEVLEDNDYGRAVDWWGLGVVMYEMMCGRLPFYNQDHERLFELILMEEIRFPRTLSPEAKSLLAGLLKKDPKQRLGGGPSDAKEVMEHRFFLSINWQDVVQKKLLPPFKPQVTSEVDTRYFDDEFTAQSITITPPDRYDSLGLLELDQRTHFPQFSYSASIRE

IC50 (Akt1 kinase) [nM]	IC50 (Akt2 kinase) [nM]	Structure (SMILES)
6	44.4	NC1(c2ccc(-c3nc4ccn5c(-c6ncccn6)nnc5c4cc3-c3ccccc3)cc2)CC(F)(F)C1 [EXAMPLE 2-10, 3,3-difluoro-1-{4-[9-phenyl-3-(2-pyrimidinyl)[1,2,4]triazolo[3,4-f]-1,6-naphthyridin-8-yl]phenyl}cyclobutanamine]
0.3	4	N[C@]1(c2ccc(-c3nc4ccn5c(-c6ncccn6)nnc5c4cc3-c3ccccc3)cc2)C[C@](O)(C2CC2)C1 [EXAMPLE 2-14, trans-3-amino-1-cyclopropyl-3-{-4-[9-phenyl-3-(2-pyrimidinyl)-[1,2,4]triazolo[3,4-f]-1,6-naphthyridin-8-yl]phenyl}cyclobutanol]
0.4	4	C[C@]1(O)C[C@@](N)(c2ccc(-c3nc4ccc5nnc(-c6cccnc6)n5c4nc3-c3ccccc3)cc2)C1 [EXAMPLE 3-7, trans-3-amino-1-methyl-3-{4-[2-phenyl-9-(3-pyridinyl)[1,2,4]triazolo-[4′,3′:1,6]pyrido[2,3-b]pyrazin-3-yl]phenyl}cyclobutanol]
0.3	11	N[C@]1(c2ccc(-c3nc4ccc5nnc(-c6ccc(O)cc6)n5c4nc3-c3ccccc3)cc2)C[C@](O)(C2CC2)C1 [EXAMPLE 3-14, 4-{3-[4-(trans-1-amino-3-cyclopropyl-3-hydroxycyclobutyl)phenyl]-2-phenyl[1,2,4]triazolo[4′,3′:1,6]pyrido[2,3-b]pyrazin-9-yl]phenol]
0.5	6.3	NC1(c2ccc(-c3nc4ccc5nnc(CCC(F)(F)F)n5c4nc3-c3ccccc3)cc2)CC(O)(C2CC2)C1 (stereo not drawn) [EXAMPLE 3-20, trans-3-amino-1-cyclopropyl-3-{4-[2-phenyl-9-(3,3,3-trifluoropropyl)[1,2,4]triazolo[4′,3′:1,6]pyrido[2,3-b]pyrazin-3-yl]phenyl}cyclobutanol]
4.7	84.3	Cc1nc(-c2nnc3c4cc(-c5ccccc5)c(-c5ccc(C6(N)CC(F)(F)C6)cc5)nc4ccn23)n[nH]1 [EXAMPLE 5-16, 3,3-difluoro-1-{4-[3-(5-methyl-1H-1,2,4-triazol-3-yl)-9-phenyl[1,2,4]triazolo[3,4-f]-1,6-naphthyridin-8-yl]phenyl}cyclobutanamine]
